This is an account of results in PubChem BioAssay (NCI).

The structures appear in SMILES notation.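 Briefly, cells in 96-well plates were exposed to five compound concentrations for 48 h, and endpoints were estimated by linear interpolation. TGI marks complete inhibition of growth.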 A value given as a limit tells only on which side of the number the result lay.

Some test systems named below: HOP-92 NSCLC; SF-268 CNS; NCI-H522 lung; MALME-3M melanoma; SW-620 colon; SF-539 CNS; NCI-H23 lung; CCRF-CEM leukemia; K-562 leukemia; MCF7 breast; RPMI-8226 leukemia.
What all share (assay): NCI anticancer screen, dose series, 48 h

`N#CN=Nc1cc(Cl)c(N=NC#N)cc1Cl`: the TGI in the assay on HOP-92 NSCLC, in the assay with SF-268 CNS, with NCI-H522 lung, in the assay with MALME-3M melanoma, in the assay on SW-620 colon and with SF-539 CNS was above 100 µM each time. Also, the TGI with NCI-H23 lung is above 100 µM; in the assay on CCRF-CEM leukemia, 92.2 µM; in the assay with K-562 leukemia it was above 100 µM.
Regarding `COC(=O)c1ccccc1C1CN=NC12Cc1c(C)cc(C)cc1C2=O` (stereo not drawn), the TGI in the assay on MCF7 breast, in the assay on HOP-92 NSCLC, in the assay on SF-268 CNS, in the assay with NCI-H522 lung, in the assay on MALME-3M melanoma and in the assay on SW-620 colon was above 100 µM in each case. The TGI in the assay with SF-539 CNS, in the assay with NCI-H23 lung, with CCRF-CEM leukemia and in the assay with K-562 leukemia was above 100 µM in each case.
On to `CN(C)c1ccc(N=Nc2cccc3ccoc23)cc1`, for which the TGI in the assay on HOP-92 NSCLC, in the assay on SF-268 CNS, in the assay on NCI-H522 lung, in the assay on MALME-3M melanoma, in the assay with SW-620 colon and in the assay with SF-539 CNS was above 100 µM throughout. Moreover, the TGI in the assay with NCI-H23 lung, with CCRF-CEM leukemia, in the assay with RPMI-8226 leukemia and in the assay with K-562 leukemia was above 100 µM in each case.
Turning to `CCCCOC(=O)CN1C(=O)c2ccccc2C1=O`, the TGI in the assay on HOP-92 NSCLC, in the assay on SF-268 CNS, in the assay on NCI-H522 lung, in the assay with MALME-3M melanoma, in the assay with SW-620 colon and with SF-539 CNS was above 100 µM in each case. Moreover, the TGI in the assay on NCI-H23 lung was above 100 µM.
For `CCOC(=O)C(NNS(=O)(=O)c1ccc(C)cc1)S(=O)(=O)C(F)(F)C(F)(F)C(F)(F)C(F)(F)F` (stereo not drawn), the TGI in the assay on MCF7 breast, with HOP-92 NSCLC, in the assay with SF-268 CNS, in the assay on NCI-H522 lung, with MALME-3M melanoma and with SW-620 colon was above 100 µM in each case. In addition, the TGI in the assay with SF-539 CNS, in the assay on NCI-H23 lung, with RPMI-8226 leukemia and with K-562 leukemia was above 100 µM each time.
For the molecule `COc1cc(CC2CCc3nc(N)nc(N)c3C2)cc(OC)c1OC` (stereo not drawn), the TGI is above 100 µM in the assay on MCF7 breast; above 100 µM in the assay on HOP-92 NSCLC; 13.4 µM with SF-268 CNS; 17 µM in the assay on NCI-H522 lung; 28.4 µM in the assay with MALME-3M melanoma; above 100 µM in the assay on SW-620 colon. The TGI in the assay on SF-539 CNS was above 60.4 µM; with NCI-H23 lung, above 72.5 µM; in the assay with RPMI-8226 leukemia, above 68.4 µM; in the assay with K-562 leukemia, above 100 µM.
With `O=C(O)C(Cc1ccc(O)cn1)NC(=O)C(F)(F)F` (stereo not drawn), the TGI in the assay on MCF7 breast, in the assay with SF-268 CNS, with NCI-H522 lung, with MALME-3M melanoma, in the assay on SW-620 colon and in the assay on SF-539 CNS was above 100 µM in each case. Further, the TGI with NCI-H23 lung, in the assay with CCRF-CEM leukemia, in the assay on RPMI-8226 leukemia and in the assay with K-562 leukemia was above 100 µM in each case.
In the case of `CC1=CC(C)C(C)N(CCNC(=O)Nc2ccccc2)c2ccccc21` (stereo not drawn), the TGI in the assay with MCF7 breast was 50.3 µM; with SF-268 CNS, above 100 µM; in the assay on NCI-H522 lung, 40.2 µM; in the assay on MALME-3M melanoma, 70.2 µM; with SW-620 colon, 83.6 µM; in the assay on SF-539 CNS, 68.3 µM. Moreover, the TGI in the assay with NCI-H23 lung was 49.1 µM; in the assay on CCRF-CEM leukemia, 62.8 µM; with RPMI-8226 leukemia, 51.8 µM; with K-562 leukemia, above 100 µM.
Regarding `COc1ccc(C2Oc3c(cccc3OC)C=C2[N+](=O)[O-])cc1OC` (stereo not drawn), the TGI is above 100 µM in the assay with MCF7 breast; above 100 µM in the assay with SF-268 CNS; 12.8 µM in the assay with NCI-H522 lung; 38.7 µM in the assay on MALME-3M melanoma; 22.3 µM in the assay with NCI-H23 lung; above 100 µM with CCRF-CEM leukemia. Further, the TGI in the assay on RPMI-8226 leukemia and in the assay with K-562 leukemia was above 100 µM in each case.
Turning to `NC(=O)/N=C(\N)NC(=O)c1ccccc1`, the TGI with HOP-92 NSCLC, with NCI-H522 lung, in the assay with MALME-3M melanoma, in the assay with SW-620 colon, in the assay with NCI-H23 lung and in the assay with K-562 leukemia was above 100 µM each time.
As to `Cc1nnc(Nc2ccc(Cl)cc2)o1`, the TGI with MCF7 breast, in the assay with SF-268 CNS, in the assay on NCI-H522 lung, with MALME-3M melanoma, in the assay on SW-620 colon and in the assay with SF-539 CNS was above 10 µM throughout. For the same molecule, the TGI in the assay on NCI-H23 lung, with CCRF-CEM leukemia and in the assay on K-562 leukemia was above 10 µM throughout.
Take `CC(N)Cc1cccc(C(F)(F)F)c1` (stereo not drawn): the TGI in the assay on HOP-92 NSCLC, with SF-268 CNS, in the assay on NCI-H522 lung, in the assay on MALME-3M melanoma, in the assay with SW-620 colon and with SF-539 CNS was above 100 µM throughout. The TGI with NCI-H23 lung, with CCRF-CEM leukemia, with RPMI-8226 leukemia and in the assay on K-562 leukemia was above 100 µM in each case.
For the molecule `CC(C)(C)CN1[C@@H]2CCCC[C@H]2N(CC(C)(C)C)P1(=O)Cc1ccccc1`, the TGI in the assay with MCF7 breast was found to be 26.2 µM; with SF-268 CNS, 28.7 µM; in the assay on NCI-H522 lung, 20.6 µM; in the assay with MALME-3M melanoma, 26.3 µM; in the assay on SW-620 colon it was 30.7 µM; in the assay with SF-539 CNS it was 31.6 µM. In addition, the TGI in the assay on NCI-H23 lung is 26.2 µM; in the assay on CCRF-CEM leukemia it was 31.3 µM; in the assay on K-562 leukemia, 28.2 µM.
For the molecule `COC(=O)c1cc(Br)c(C(=O)C(Cl)(Cl)Cl)[nH]1`, the TGI with HOP-92 NSCLC, with SF-268 CNS, in the assay with NCI-H522 lung, in the assay with MALME-3M melanoma, with SW-620 colon and with SF-539 CNS was above 100 µM each time. For the same molecule, the TGI with NCI-H23 lung, with CCRF-CEM leukemia, with RPMI-8226 leukemia and with K-562 leukemia was above 100 µM throughout.
